Laboratory results published in patent US20260138976A1 (Hoffmann-La Roche Inc., priority 2022, published 2026).

Tests used:
[1] = biological target: T1, DGKα (hDGKalpha(1-735)-N-His) (Homo sapiens, UniProt P23743); experiment: In vitro DGK inhibition assay, DGKalpha ADP Glo (in house); assay type: biochemical; conditions: 4 nM DGKα, 25 μM ATP, 125 uM DLG in liposomes, 1 hour reaction
T1 construct: hDGKalpha(1-735)-N-His; His (N); made in house; host or cells: Sf21 insect cells (baculovirus)
Experimental: (§1) DGKα and ζ kinases use ATP to phosphorylate the substrate 1,2-dilauroyl-sn-glycerol (DLG, incorporated in the liposomes). ATP is converted to ADP as a result of this enzymatic reaction. After the kinase reaction, an ATP-depletion reagent is added to terminate the kinase reaction and deplete any remaining ATP, leaving only ADP. Second, a detection reagent is added to simultaneously convert ADP to ATP and allow the newly synthesized ATP to be converted to light using a coupled luciferase/luciferin reaction.
(§2) Full length DGKα and ζ were expressed in Sf21 insect cells by infecting the cells with the baculovirus stock at MOI of 2. Purification of both enzymes was performed as previously described by Takahashi et al., PeerJ, 2018 (Takahashi, D.; Sakane, F. Expression and purification of human diacylglycerol 5 kinase alpha from baculovirus-infected insect cells for structural studies. PeerJ2018, 6, No. e5449).
(§3) A concentrated liposome solution was prepared in assay buffer without DTT and BSA: 2 mM of DLG in 21 mM of total liposome (2 mM DLG/8 mM PS/11 mM PC). The reaction mixtures contain the assay buffer with a final DLG concentration of 125 uM ATP concentrations of 25 μM (for DGKA assay) or 50 μM (for DGKZ assay). The reactions were started by addition of DGK α and ζ kinases at 4 nM and 2 nM final concentrations, respectively. After 1 hour reaction, the amount of ADP formed was detected with the ADP-Glo kinase assay (Promega) according to the manufacturer instructions. Compounds were added in 11-points dose response, starting at […], 1:3 dilutions, with a final DMSO concentration of 2%. The multidrop combi was used as a liquid handler and luminescence was read with 0.5 s by the envision reader (PE).

DGK α kinase = biological target: T2, DGK α kinase (Homo sapiens, UniProt P23743); experiment: DGKalpha kinase ADP Glo assay run by Reaction Biology Corp.; assay type: biochemical; conditions: 2 nM kinase, 50 µM ATP, 500 μM DLG, 10-dose duplicate
T2 construct: purchased Reaction Biology Corp. (contract assay service)
T2 sequence (P23743 whole entry): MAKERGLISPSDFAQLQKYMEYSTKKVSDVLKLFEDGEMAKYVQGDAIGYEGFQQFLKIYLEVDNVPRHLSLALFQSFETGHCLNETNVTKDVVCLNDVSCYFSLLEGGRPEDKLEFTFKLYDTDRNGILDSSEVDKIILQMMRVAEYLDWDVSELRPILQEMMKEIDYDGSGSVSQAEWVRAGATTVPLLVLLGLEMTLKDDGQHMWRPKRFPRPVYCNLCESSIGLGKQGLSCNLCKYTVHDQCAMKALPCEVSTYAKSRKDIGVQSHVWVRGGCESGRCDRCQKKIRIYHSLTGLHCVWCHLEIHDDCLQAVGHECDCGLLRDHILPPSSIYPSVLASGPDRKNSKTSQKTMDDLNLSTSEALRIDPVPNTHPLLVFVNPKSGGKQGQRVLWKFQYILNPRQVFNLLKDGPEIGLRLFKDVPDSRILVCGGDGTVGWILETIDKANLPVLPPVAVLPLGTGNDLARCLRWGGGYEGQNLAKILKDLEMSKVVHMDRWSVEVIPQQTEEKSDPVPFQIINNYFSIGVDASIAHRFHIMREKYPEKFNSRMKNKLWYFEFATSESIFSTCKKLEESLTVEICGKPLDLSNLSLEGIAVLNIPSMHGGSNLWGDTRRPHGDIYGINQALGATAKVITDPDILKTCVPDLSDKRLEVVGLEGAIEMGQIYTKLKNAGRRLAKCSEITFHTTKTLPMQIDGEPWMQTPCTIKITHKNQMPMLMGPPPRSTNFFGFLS
Experimental: (§4) DGK α and ζ kinases use ATP to phosphorylate the substrate 1,2-dilauroyl-sn-glycerol (DLG). ATP is converted to ADP as a result of this enzymatic reaction.
(§5) After the kinase reaction, an ATP-depletion reagent is added to terminate the kinase reaction and deplete any remaining ATP, leaving only ADP. Second, a detection reagent is added to simultaneously convert ADP to ATP and allow the newly synthesized ATP to be converted to light using a coupled luciferase/luciferin reaction.
(§6) DGK α and ζ kinase ADP Glo assays were ran by Reaction Biology Corp., 1 Great Valley Parkway, Suite 2, Malvern, 19355, PA, USA. Information provided by the service provider are the following: DGK α and ζ kinases were used at 2 nM final concentration. Reactions were carried out at 50 µM ATP. 500 μM of the substrate DLG (Dilauroyl-sn-glycerol) was used.

DGK ζ kinase = biological target: T3, DGK ζ kinase (Homo sapiens, UniProt Q13574); experiment: DGKzeta kinase ADP Glo assay run by Reaction Biology Corp.; assay type: biochemical; conditions: 2 nM kinase, 50 µM ATP, 500 μM DLG, 10-dose duplicate
T3 construct: purchased Reaction Biology Corp. (contract assay service)
T3 sequence (Q13574 whole entry): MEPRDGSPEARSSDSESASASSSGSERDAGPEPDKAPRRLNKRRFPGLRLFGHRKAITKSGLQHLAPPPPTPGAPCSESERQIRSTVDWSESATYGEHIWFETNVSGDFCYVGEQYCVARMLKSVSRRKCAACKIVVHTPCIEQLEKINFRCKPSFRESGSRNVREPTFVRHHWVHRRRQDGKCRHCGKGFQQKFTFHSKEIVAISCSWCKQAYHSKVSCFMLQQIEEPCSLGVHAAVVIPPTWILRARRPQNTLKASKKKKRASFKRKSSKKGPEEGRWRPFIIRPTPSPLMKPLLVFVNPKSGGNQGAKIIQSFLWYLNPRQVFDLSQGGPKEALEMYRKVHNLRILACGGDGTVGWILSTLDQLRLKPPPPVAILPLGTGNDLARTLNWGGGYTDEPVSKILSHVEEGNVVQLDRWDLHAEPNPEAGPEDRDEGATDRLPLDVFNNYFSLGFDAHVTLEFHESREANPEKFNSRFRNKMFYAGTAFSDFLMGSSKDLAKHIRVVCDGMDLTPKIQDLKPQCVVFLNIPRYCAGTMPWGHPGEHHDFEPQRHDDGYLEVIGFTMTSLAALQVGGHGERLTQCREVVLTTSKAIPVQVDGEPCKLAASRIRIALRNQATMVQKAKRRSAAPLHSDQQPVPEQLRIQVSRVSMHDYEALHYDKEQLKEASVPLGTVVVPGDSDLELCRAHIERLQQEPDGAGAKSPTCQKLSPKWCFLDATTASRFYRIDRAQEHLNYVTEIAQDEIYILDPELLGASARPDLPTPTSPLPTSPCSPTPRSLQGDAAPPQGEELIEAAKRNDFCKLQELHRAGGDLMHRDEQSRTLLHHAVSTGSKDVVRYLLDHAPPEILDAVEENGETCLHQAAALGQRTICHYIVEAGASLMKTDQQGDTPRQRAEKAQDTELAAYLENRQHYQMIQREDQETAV
Experimental: as §4, §5, §6

primary human T-cells = experiment: Proliferation assay (5 days, CellTiter-Glo, CD3-stimulated T-cells); assay type: cell-based
Outline: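 Expanded primary human T-cells, 100 k cells/well, were stimulated with plate-coated CD3 antibody (donor-titrated) and given compound in a 5 or 6 pt dose response from 20 μM or 10 μM final top, 0.2% DMSO final. ATP was read by CellTiter-Glo after 5 days. EC50 and Emax were reported as % of 20 μM reference compound A1.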

[2] = biological target: T4, DGKζ (hDGKzeta(1-928)-N-His) (Homo sapiens, UniProt Q13574); experiment: In vitro DGK inhibition assay, DGKzeta ADP Glo (in house); assay type: biochemical; conditions: 2 nM DGKζ, 50 μM ATP, 125 uM DLG in liposomes, 1 hour reaction
T4 construct: hDGKzeta(1-928)-N-His; His (N); made in house; host or cells: Sf21 insect cells (baculovirus)
T4 sequence (Q13574 whole entry): as above
Experimental: as §1, §2, §3

T1 sequence (P23743 whole entry): as the sequence (P23743 whole entry) above

IC50 [1]: 17.8 µM | IC50 (DGK α kinase): 227 nM | IC50 (DGK ζ kinase): 365 nM | IC50 [2]: 3.1 µM
Structure (SMILES): CN1CCCC(F)(c2nnc(-c3ccc4c(c3)N(Cc3ccc(-c5noc(C(F)(F)F)n5)cc3)C(=O)[C@@H](N)CS4(=O)=O)o2)C1 (stereo partly drawn) [Example 49, (3R)-3-amino-7-[5-(3-fluoro-1-methyl-3-piperidyl)-1,3,4-oxadiazol-2-yl]-1,1-dioxo-5-[[4-[5-(trifluoromethyl)-1,2,4-oxadiazol-3-yl]phenyl]methyl]-2,3-dihydro-1λ^6,5-benzothiazepin-4-one]
Emax proliferation (% activation) (primary human T-cells; CD3 condition, normalised to DMSO (neutral) and 20 μM reference compound A1 = 100%): 86 % activation | EC50 (primary human T-cells; Homo sapiens, T-cell, 120 h, CD3-stimulated primary human T-cells, 5 days, CellTiter-Glo, fitted sigmoidal curve, read-out: Tcell Proliferation CD3 EC50): 122 nM
